Experimental data reported in patent publication US20120003156A1, “METHODS FOR TREATING NEOPLASIA BY INHIBITING LACTATE DEHYDROGENASE AND/OR NICOTINAMIDE PHOSPHORIBOSYLTRANSFERASE” (The Johns Hopkins University, priority 2008, published 2012).
Entries after “also recorded” stand apart in the source; their conditions may differ.

Legend:
[1] = test system: P493 cells; assay: Oxygen consumption, Clark-type oxygen electrode; assay type: cell-based, human; settings: FX11 treatment
Procedure: Oxygen consumption was measured using a Clark-type oxygen electrode (Oxytherm System, Hansatech Instruments Ltd). 5×10^6 cells in 1 ml medium were placed in the chamber above a membrane which is permeable to oxygen. Oxygen diffuses through the membrane and is reduced at the cathode surface so that a current flows through the circuit which is completed by a thin layer of KCl solution. The current which is generated bears a direct, stoichiometric relationship to the oxygen reduced, and is converted to a digital signal. Determinations were done in triplicate, and the entire experiment was done twice.

[2] = test system: Ramos Burkitt lymphoma cells; assay: Cell population growth; assay type: cell-based, human
[3] = test system: P493 human lymphoma B cells; assay: Cell population growth, trypan blue live cell count; assay type: cell-based
Procedure: (§1) P493 human lymphoma B cells were maintained in RPMI 1640 with 10% fetal bovine serum (FBS) and 1% penicillin-streptomycin. P198 human pancreatic cancer cells; RCC4, RCC4-VHL human renal carcinoma cells; MCF-7 and MDA-MB-453 breast cancer cells were maintained in high glucose (4.5 mg/ml) DMEM with 10% FBS and 1% penicillin-streptomycin. Non-hypoxic cells (20% O2) were maintained at 37° C. in a 5% CO2, 95% in an air incubator. Hypoxic cells (1% O2) were maintained in a controlled atmosphere chamber (PLAS-LABS, Lansing, Mich.) with a gas mixture containing 1% O2, 5% CO2, and 94% N2 at 37° C. for the indicated time. Bright live cells were counted daily in a hemacytometer using trypan blue dye to exclude dead cells. All cells were grown at a concentration of 10^5 cells/ml. All drugs treatment began at day 0.
siRNAs targeting human LDHA (ON-TARGETplus SMARTpool) were purchased from Dharmacon Research Inc. Targeting sequences for LDHA were a pool of the following four target sequences: sequence 1, […]; sequence 2, […]; sequence 3, […]; sequence 4, […]. Accordingly, one of skill in the art would recognize the siRNA sequences corresponding to these targets. For P493 human lymphoma B cells, transfection of siRNAs was performed using an Amaxa Nucleotransfection device according to the manufacturer's instructions. Briefly, 2 μg siLDHA ON-TARGETplus SMARTpool or ON-TARGETplus Non-targeting Pool (Dharmacon Research Inc.) were transfected into 2×10^6 cells at 0 hours. […]. The remaining cells were harvested for immunoblot analysis. For P198 human pancreatic cancer cells, transfection of siRNAs was performed using X-tremeGENE siRNA Transfection Reagent (Roche) according to the manufacturer's instructions.

[4] = test system: AMP kinase (AMPK); assay: Immunoblot of phospho-AMPK; assay type: cell-based, human; settings: 20 hours of exposure
[5] = test system: P493 cells; assay: Lactate production and glucose utilization, ABL700 Radiometer analyzer; assay type: cell-based, human
Procedure: Lactate production was measured by the ABL700 Radiometer analyzer according to the manufacturer's instructions. 10^5 cells were grown at 37° C. in a 5% CO2, 95% air incubator and treated with 9 μM FX11 or 0.5 nM FK866 for 24 hours.

[6] = Solubility in aqueous solution; assay type: physicochemical; settings: relative to the 42 μg dose
Procedure: Although the renewed interest in the Warburg effect is accompanied by a greater understanding of its molecular underpinnings, targeting it for therapeutic purposes has become a major challenge. […] Of note, primary human lymphomas have been documented to have elevated LDHA expression particularly in hypoxic regions. […] A desired FX11 dose of 42 μg for daily intraperitoneal (IP) injection was calculated. An initial serum level of ˜100 μM was expected, assuming a uniform and immediate distribution in the vascular system without accounting for the drug half-life or drug metabolism.

[7] = Side effects, hematology and blood chemistry in treated animals
[8] = test system: P493 human lymphoma B cells; assay: Human P493 B cell lymphoma xenograft; assay type: in vivo, SCID mice
Procedure: (§2) The animal studies were performed according to the protocols approved by the Animal Care and Use Committee at Johns Hopkins University. In order to generate tumorigenesis study in xenograft model, 2.0×10^7 P493 human lymphoma B cells or 5×10^6 human pancreatic cancer cells were injected subcutaneously into male SCID mice (NCI) or athymic Hsd: RH-Foxn1nu mice (Harlan), respectively, as previously described (Feldmann et al., 2007; Gao et al., 2009; Gao et al., 2007). When the tumor volume reached 200 mm^3, groups of 5 mice were injected with control 2% DMSO or 42 μg FX11 and/or 100 μg FK866. The tumor volumes were measured using a digital caliper after 4, 7 and 10 days of treatment. Tumor volumes were calculated using the following formula: [length (mm)×width (mm)×width (mm)×0.52]. The entire experiment was repeated seven times.

[9] = test system: P493 cells; assay: Annexin V / 7-AAD cell death assay; assay type: cell-based, human; settings: 24 hours of FX11 treatment
[10] = test system: MDA-MB-453 cells; assay: Cell population growth; assay type: cell-based, human; settings: dose-response
Procedure: as §1

[11] = test system: RCC4 cells; assay: Cell population growth; assay type: cell-based, human; settings: dose-response
Procedure: as §1

[12] = test system: MCF-7 cells; assay: Cell population growth; assay type: cell-based, human; settings: dose-response
Procedure: as §1

[13] = test system: RCC4-VHL cells; assay: Cell population growth; assay type: cell-based, human; settings: dose-response
Procedure: as §1

[14] = test system: P198 human pancreatic cancer xenografts; assay: Human P198 pancreatic cancer xenograft; assay type: in vivo, athymic nu mice; settings: treatment from 200 mm^3; daily IP 42 μg FX11; compared with E
Procedure: as §2

[15] = test system: P493 cells; assay: ATP levels, luciferin-luciferase-based assay; assay type: cell-based, human; settings: 9 μM FX11 or 0.5 nM FK866, 20 hours
Procedure: P493 cells were treated with 9 μM FX11 or 0.5 nM FK866 for 20 hours and counted. ATP levels were determined by luciferin-luciferase-based assay (Promega) on aliquots containing equal number of cells according to standard protocol.

[16] = test system: P493 cells; assay: NADH/NAD+ ratio colorimetric assay; assay type: cell-based, human; settings: 9 μM FX11, 24 hours
Procedure: The NADH/NAD^+ ratios were assayed using EnzyChrom™ NADH/NAD^+ colorimetric Assay Kit, from BioAssay Systems. This assay is based on an enzyme-catalyzed kinetic reaction where a tetrazolium dye 3-[4,5-dimethylthiazol-2-yl]-2,5-diphenyltetrazolium bromide (MTT) is reduced by NADH in the presence of phenazine methosulfate (PMS). The intensity of the reduced product color, measured at 565 nm, is proportionate to the NADH/NAD^+ concentration in the sample. […] After washing with cold PBS, cells were homogenized in 100 μl of NAD^+ or NADH extraction buffer. Following heat extract at 60° C. for 5 minutes, the assay was performed according to the manufacturer's instructions.

## CCCc1c(O)c(O)c(C(=O)O)c2cc(Cc3ccccc3)c(C)cc12 [FX11, 2,3-dihydroxy-6-methyl-7-(phenylmethyl)-4-propylnaphthalene-1-carboxylic acid]
[1]
  oxygen consumption: increased oxygen consumption
[2]
  cell population growth inhibition: sensitive to FX11 inhibition in a manner that is diminished by glucose withdrawal; also recorded: dose-dependent manner
[3]; 9 μM FX11
  growth inhibition at 1% O2 compared with normoxia: increased
  proliferative rate of P493 cells with siRNA knock-down of LDHA: not further slowed
[3]; glucose-depleted medium
  inhibition of P493 cells in the absence of glucose: could not inhibit P493 cells further
[3]; normoxia (20% O2) and hypoxia (1% O2)
  inhibition of P493 cells, dose-response: dose-dependent manner that was augmented in hypoxia
[3]; single agent
  proliferation of P493 cells: diminished proliferation
[4]
  AMP kinase (AMPK) activation: activation
[5]; 9 μM FX11, 24 hours
  cellular production of lactate: significantly diminished
[5]; FX11 treatment for 24 hours
  glucose utilization: reduction of glucose utilization
[6]
  solubility limit in aqueous solution: dose could only be doubled before the limit of FX11 in aqueous solution was reached
[7]; doses that affected tumor growth in vivo
  kidney (BUN, creatinine) or liver (aspartate aminotransferase, alanine aminotransferase, alkaline phosphatase) toxicity by blood chemistries: did not reveal any evidence
[7]; single agent, five animals studied
  hematology (cytopenia): no cytopenia
[7]; treated animals
  body weight: did not lose weight
  lethargy, ability to eat and drink: no lethargy or the inability to eat and drink
[8]; daily IP, 42 μg FX11 or 0.8 mg doxycycline, vs vehicle 2% DMSO
  tumor growth of palpable P493 xenografts: remarkable inhibition of tumor growth
[8]; treatment from 200 mm^3, daily IP 42 μg FX11 and/or 100 μg FK866, ten days
  tumor growth of established P493 lymphoma xenografts: cytostatic, but significant effect; also recorded: effectively inhibited
[9]
  cell death (7-AAD and annexin V labeling): increased
[10]
  cell population growth: inhibited cell population growth
[11]
  cell population growth / sensitivity: inhibited cell population growth; also recorded: more sensitive
[12]
  cell population growth / sensitivity: inhibited cell population growth; also recorded: more sensitive
[13]
  cell population growth: inhibited cell population growth
[14]
  tumor growth of P198 pancreatic tumor xenografts: significant response; also recorded: effectively inhibited
[15]
  ATP levels: decrease in ATP levels
[16]
  NADH/NAD+ ratio: increase
